The structures appear in SMILES notation. ≈ marks a conversion by molar mass, not a printed value.

Holding throughout (type): functional
Assay [1] has as its system Bifidobacterium thermophilum. Put plainly: Antibacterial activity against Bifidobacterium thermophilum B0253 by broth microdilution method.
The subject of assay [2] is Bifidobacterium thermophilum. Put plainly: Antibacterial activity against Bifidobacterium thermophilum B0256 by broth microdilution method.
Assay [3] deals with Bifidobacterium thermophilum. Put plainly: Antibacterial activity against Bifidobacterium thermophilum B0242 by broth microdilution method.
In assay [4] the test system is Bifidobacterium thermophilum. Put plainly: Antibacterial activity against Bifidobacterium thermophilum B0241 by broth microdilution method.
The next assay deals with Lactobacillus johnsonii. Put plainly: Antibacterial activity against Lactobacillus johnsonii L0077 by Etest.
Assay [5] relates to Bifidobacterium thermophilum. Put plainly: Antibacterial activity against Bifidobacterium thermophilum B0219 by broth microdilution method.

Regarding `CN(C)[C@@H]1C(O)=C(C(N)=O)C(=O)[C@@]2(O)C(O)=C3C(=O)c4c(O)cccc4[C@@](C)(O)[C@H]3C[C@@H]12` [TETRACYCLINE], the MIC is 128 µg/mL (≈ 288 µM) in assay [1]; 128 µg/mL (≈ 288 µM) in assay [2]; 256 µg/mL (≈ 576 µM) in assay [3]; 128 µg/mL (≈ 288 µM) in assay [4]; > 256 µg/mL against Lactobacillus johnsonii; 128 µg/mL (≈ 288 µM) in assay [5].
